Source: publication PMC7588914, “Luminescence of Cypridina Luciferin in the Presence of Human Plasma Alpha 1-Acid Glycoprotein” (International Journal of Molecular Sciences, 2020)

System: T1, human plasma alpha 1-acid glycoprotein (hAGP)
T1 construct: gene ORM1; native, purified from human plasma (commercial, Sigma-Aldrich); secreted glycoprotein, signal peptide removed; plasma preparation is normally a mix of ORM1 and ORM2 products
Assay: luminescence intensity, Michaelis-Menten fit
Assay type: biochemical
Conditions: 50 mM Gly-NaOH pH 9.5, room temperature, 25 μg/mL hAGP; hAGP treated as a luciferase

## CC[C@H](C)c1nc2c(CCCNC(=N)N)[nH]c(-c3c[nH]c4ccccc34)cn-2c1=O [Cypridina luciferin]
  Km: 0.46 µM
